From patent publication US20240025913A1, “TERTIARY CARBOXAMIDE COMPOUNDS” (Vivace Therapeutics, Inc., priority 2020, published 2024)

Test system: 8×TBD luciferase reporter in HEK293T cells
Assay: YAP Reporter Assay (firefly luciferase)
Type: cell-based
Settings: Homo sapiens, HEK-293T; HEK293T cells stably transfected with 8×TBD luciferase reporter and pRLTK; 24-hr incubation; starting from 3 μM, 1:3 dilution, 10 points
Description: HEK293T cells stably transfected with 8×TBD luciferase reporter and pRLTK in 384-well plates were treated with the test compounds, starting from 3 μM (final concentration in assay plate), 1:3 dilution, and 10 points in quadruplicates. Post 24-hr incubation with compounds at 37° C. and 5% CO2, cells were lysed and 8×TBD-driven firefly luciferase and control TK-driven renilla luciferase activities were measured using Promega Dual-Luciferase Reporter Assay System.
Reagents: The reagents used for this study are: DMEM: Invitrogen #11960077, Dual-Glo Luciferase Assay System: Promega-E2980, Puromycin Dihydrochloride: Invitrogen-A1113803, 384-well plate: PerkinElmer-6007480, L-GLUTAMINE: Invitrogen-25030164, Hygromycin B: Invitrogen-10687010, and Penicillin-Streptomycin: Merk-TMS-AB2-C
Media: The media used for this assay were: Culture Medium: DMEM+1 ug/mL puromycin+200 ug/mL hygromycin (with 10% FBS+1 mM L-glutamine); and Assay Medium: DMEM (with 10% FBS+1 mM L-glutamine+1×P/S).
Cell Plating: The appropriate media was warmed at 37° C. by water bath: Culture Medium, Assay Medium, 1*D-PBS, 0.05% trypsin-EDTA. The cells were trypsinized after removing all media, then washed with 1*sterile D-PBS and then with 2 ml 0.05% trypsin-EDTA. The cells were then incubated at RT for one minute. Then 10 ml/75 cm2 flask Assay Medium was added to each flask. Using a 10 ml pipette, the cells were then gently resuspended in the media, until the clumps completely disappeared. The cells were then transferred into 50 ml centrifuge tubes and were centrifuged at 800 rpm for 5 mins. The medium was removed and the cells were resuspended with Assay Medium. An aliquot of cells was used to count the cell density (cells/ml). The cell suspension was then diluted with Assay Medium to a concentration of 6×10^4 cells/ml. 50 ul cells suspension was then plated to 384-well plate (PerkinElmer-6007480), 3×10^3 cells/well and the cells were incubated in an incubator at 37° C., 5% CO2.
Compound Treatment: In the afternoon (incubation of the plate with 3-4 hrs), the test compounds were added by Echo, starting from 3 uM (final concentration in the assay plate), 1:3 dilution, 10 points, quadruplicates. The plate was placed at 37° C., 5% CO2 incubator for 24 hrs.
Detection: The Dual-Glo Luciferase Reagent was prepared by transferring the contents of one bottle of Dual-Glo Luciferase Buffer to one bottle of Dual-Glo Luciferase Substrate to create the Dual-G Luciferase Reagent. Mixing was performed by inversion until the substrate was thoroughly dissolved. After mixing, the reagent was aliquoted into 15 ml tubes. In the afternoon (24 hrs post compound treatment), the DMEM+ medium in the 384 well plates were aspirated by Microplate Washer.
Measuring firefly luciferase activity: 20 ul Dual-Glo Luciferase Reagent was added to the 384-well plates. The plates were protected from light to prevent interference with the assay. The plates were shaken for […] followed centrifuging plates at 1000 rpm for 30 seconds. After waiting at least 10 minutes, the firefly luminescence was measured by Envision.
Measuring renilla luciferase activity: 20 ul Stop-Glo Reagent was added to the 384-well plates. The plates were shaken for […] and then centrifuged at 1000 rpm for 30 seconds. After waiting at least 10 minutes, the renilla luminescence was measured by Envision.
Compound IC50 and maximum inhibition on the firefly luciferase and renilla luciferase activities were reported separately.

`COCCN1CC2(C1)CN(C(=O)c1ccc3c(Oc4ccc(C(F)(F)F)cc4)cccc3c1)C2` [Compound 22, (6-(2-Methoxyethyl)-2,6-diazaspiro[3.3]heptan-2-yl)(5-(4-(trifluoromethyl)phenoxy)naphthalen-2-yl)methanone] and `O=C(c1ccc2c(Oc3ccc(C(F)(F)F)cc3)cccc2c1)N1CC2(CN(CCO)C2)C1` [Compound 21, (6-(2-Hydroxyethyl)-2,6-diazaspiro[3.3]heptan-2-yl)(5-(4-(trifluoromethyl)phenoxy)naphthalen-2-yl)methanone] fall in the same range of IC50: 100 to 1000 nM for the first, 100 to 1000 nM for the second.

`O=C(c1ccc2c(Oc3ccc(C(F)(F)F)cc3)cccc2c1)N1CC2(CN(CC(F)F)C2)C1` [Compound 24, (6-(2,2-Difluoroethyl)-2,6-diazaspiro[3.3]heptan-2-yl)(5-(4-(trifluoromethyl)phenoxy)naphthalen-2-yl)methanone] and `CN1CC2(C1)CN(C(=O)c1ccc3c(Oc4ccc(C(F)(F)F)cc4)cccc3c1)C2` [Compound 18, (6-Methyl-2,6-diazaspiro[3.3]heptan-2-yl)(5-(4-(trifluoromethyl)phenoxy)naphthalen-2-yl)methanone] fall in the same range of IC50: 100 to 1000 nM for the first, 100 to 1000 nM for the second.

`O=C(c1ccc2c(Oc3ccc(C(F)(F)F)cc3)cccc2c1)N1CC(O)C1` [Compound 15, (3-Hydroxyazetidin-1-yl)(5-(4-(trifluoromethyl)phenoxy)naphthalen-2-yl)methanone] and `NCC1CN(C(=O)c2ccc3c(Oc4ccc(C(F)(F)F)cc4)cccc3c2)C1` [Compound 7, (3-(Aminomethyl)azetidin-1-yl)(5-(4-(trifluoromethyl)phenoxy)naphthalen-2-yl)methanone] cannot be ordered by IC50: no more than 100 nM for the first, no more than 100 nM for the second.

`O=C(c1ccc2c(Oc3ccc(C(F)(F)F)cc3)cccc2c1)N1CC(NCCO)C1` [Compound 30, (3-((2-Hydroxyethyl)amino)azetidin-1-yl)(5-(4-(trifluoromethyl)phenoxy)naphthalen-2-yl)methanone] and `O=C(c1ccc2c(Oc3ccc(C(F)(F)F)cc3)cccc2c1)N1CC(NCCF)C1` [Compound 31, (3-((2-Fluoroethyl)amino)azetidin-1-yl)(5-(4-(trifluoromethyl)phenoxy)naphthalen-2-yl)methanone] cannot be ordered by IC50: no more than 100 nM for the first, 100 to 1000 nM for the second.

First: CC(C)N1CC2(CN(C(=O)c3ccc4c(Oc5ccc(C(F)(F)F)cc5)cccc4c3)C2)C1 [Compound 20, (6-Isopropyl-2,6-diazaspiro[3.3]heptan-2-yl)(5-(4-(trifluoromethyl)phenoxy)naphthalen-2-yl)methanone]
Second: O=C(c1ccc2c(Oc3ccc(C(F)(F)F)cc3)cccc2c1)N1CC2(C1)CN(c1ccccn1)C2 [Compound 41, (6-(Pyridin-2-yl)-2,6-diazaspiro[3.3]heptan-2-yl)(5-(4-(trifluoromethyl)phenoxy)naphthalen-2-yl)methanone]
The IC50 of the first is lower: 100 to 1000 nM for the first, 1000 to 3000 nM for the second.

Compared with `O=C(c1ccc2c(Oc3ccc(C(F)(F)F)cc3)cccc2c1)N1CCNCC1` [Compound 2, Piperazin-1-yl(5-(4-(trifluoromethyl)phenoxy)naphthalen-2-yl)methanone], `CNCC1CN(C(=O)c2ccc3c(Oc4ccc(C(F)(F)F)cc4)cccc3c2)C1` [Compound 25, (3-((Methylamino)methyl)azetidin-1-yl)(5-(4-(trifluoromethyl)phenoxy)naphthalen-2-yl)methanone] is lower in IC50: 1000 to 3000 nM for the first, 100 to 1000 nM for the second. The second is the more potent here.

`O=C(c1ccc2c(Oc3ccc(C(F)(F)F)cc3)cccc2c1)N1CC(CNc2ccccn2)C1` [Compound 40, (3-((Pyridin-2-ylamino)methyl)azetidin-1-yl)(5-(4-(trifluoromethyl)phenoxy)naphthalen-2-yl)methanone] and `COCCNCC1CN(C(=O)c2ccc3c(Oc4ccc(C(F)(F)F)cc4)cccc3c2)C1` [Compound 35, (3-(((2-Methoxyethyl)amino)methyl)azetidin-1-yl)(5-(4-(trifluoromethyl)phenoxy)naphthalen-2-yl)methanone] cannot be ordered by IC50: no more than 100 nM for the first, 100 to 1000 nM for the second.
